From a melting point compilation (Tetko et al.; mined from patent text by program, amines drawn as free bases though some values may be those of a salt)

Compound | melting point [°C]
Cn1nc(-c2nc(C#Cc3ccccc3)c(N)nc2-c2ccccc2)ccc1=O | 234 to 236
CN(C)[C@@H]1c2ccccc2N(C(=O)c2ccc(NC(=O)c3ccccc3Cl)cc2)CC[C@H]1O (relative stereo) | 180 to 182
CCCCCCNc1nc(-c2ccc(F)cc2)c(-c2ccc(S(C)(=O)=O)cc2)s1 | 161 to 162
O=S1(=O)c2ccccc2NC2CCCN21 (stereo not drawn) | 149 to 154
Cc1ccc(S(=O)(=O)C(CC=Cc2ccc(Cl)cc2)C(=O)O)cc1 (stereo not drawn) | 162 to 164
NS(=O)(=O)c1ccc(-n2nc(C(F)(F)F)cc2-c2ccc(F)cc2)cc1F | 127 to 130
CCOC(=O)c1cc(O)c2nc(C)c(C)n2c1 | 219 to 221
c1ccc2c(Nc3ccc4[nH]ncc4c3)nc(-c3ccc4c(c3)CCO4)nc2c1 | 267 to 272
NCC(F)(F)C(F)(F)C(F)(F)C(F)(F)CN | 44 to 45
CCc1[nH]n(C2CCCC2)c2nc(Cc3ccc(OC)cc3)nc(=O)c1-2 | 172 to 173
CC1(C)OCC(COS(=O)(=O)c2ccc([N+](=O)[O-])cc2)O1 (stereo not drawn) | 92 to 94
CC(C)CC(NC(=O)N1CCc2cc(S(=O)(=O)N3CCN(c4cccc(Cl)c4)CC3)ccc21)C(=O)O (stereo not drawn) | 138 to 140
CCN1CCC(=O)N(c2ccc(Cl)cc2C)C1=S | 133 to 136
c1cncc(-c2nsnc2SCCCc2cccs2)c1 | 98 to 100
O=[N+]([O-])c1ccc(NN=C(Cl)c2ccccc2)cc1 | 195 to 196
O=C(Cl)N1CCC(Oc2ccc(F)c(Cl)c2)C1 (stereo not drawn) | 63 to 65
CC(=O)NC[C@H]1CC(c2ccc(-c3ccncc3)cc2)=NO1 | 244 to 245
C[C@@H](n1cnc2ccc(F)cc2c1=O)[C@](O)(Cn1cncn1)c1ccc(F)cc1F | 192 to 193
CN(C)C(=O)COc1cc(Cl)ccc1C(=O)NCCN1CCN(C(=O)OC(C)(C)C)CC1 | 139 to 140
O=C(c1ccc(-c2ccn(C(=O)Cc3ccc(Cl)cc3Cl)n2)cc1)N1Cc2cccn2Cc2ccccc21 | 130 to 140
N#CCN1C(=O)N(c2ccc(C#N)c(C(F)(F)F)c2)C(=O)C1(CO)CO | 157 to 158
CN1C(=O)C2=C(c3ccc([N+](=O)[O-])cc3)OC(=O)C2=C1c1ccccc1 | 253 to 255
O=C(c1cc(=O)c2cc(O)ccc2[nH]1)N1CCC(Cc2ccc(Cl)cc2)CC1 | 194
Cn1cncc1C(c1ccc(Cl)cc1)c1ccc2c(c1)c(-c1nc(-c3ccccc3)cs1)cc(=O)n2C (stereo not drawn) | 171
COc1ccc(C(=O)CN(Cc2ccccc2)Cc2ccccc2)cc1C(N)=O | 113 to 114
C[C@H]1NC(Cc2ccc(Br)c(Oc3cc(C#N)cc(C(F)F)c3)c2F)=NNC1=O | 184 to 186

Compound | melting point [°C]
CCCN1C(=O)C2C3CCC(O3)C2C1=O (stereo not drawn) | 79 to 80
CCCCCCCCCCCCCCCCOC(=O)NCCN1CCOCC1 | 65
N#Cc1nc(NC2CCCCC2)c2ncn(CCn3ccnc3)c2n1 | 115 to 117
C[C@]1(CN2CCC(NCCc3ccc(C(F)(F)F)cc3)CC2)Cn2cc([N+](=O)[O-])nc2O1 | 80.7 to 84.2
O=S=c1cc(-c2ccc(O)cc2)ss1 | 118 to 124
C#Cc1cc(Nc2ncnc3cnc(N)cc23)ccc1F | 218 to 222
NCc1cc(=O)[nH]c(=O)[nH]1 | 295 to 297
CCOC(=O)C1=C(C)Nc2nc(N3CCOCC3)nc(N3CCOCC3)c2C1c1ccccc1C#N (stereo not drawn) | 248
COc1ccc(CC(=O)c2c(OC)cc(OC)cc2OC)c(OC)c1 | 109 to 111
CCN(CC)c1ccc2c(c1)Oc1cc(OC(C)=O)c3ccccc3c1N2C(C)=O | 64 to 72
CC(C)C(NC(=O)Nc1ccc(C(=O)NCC(=O)OCc2ccccc2)cc1)C(=O)N1CCCC1C(=O)NC(C(=O)C(F)(F)F)C(C)C (mixture of isomers) | 65 to 70
CCN(C)C(=O)/C=C/CSc1nc(N)cc(Cl)n1 | 170 to 172
C=CCOc1ccc2nc(S(N)(=O)=O)sc2c1 | 184 to 187
OCCc1ccc(Nc2ncc3c(n2)-c2ccccc2C(c2cccc(Br)c2)C3)cc1 (stereo not drawn) | 88 to 90
CCS(=O)(=O)CCC(=O)NNC(=O)N1Cc2ccccc2Oc2ccc(C#N)cc21 | 188 to 190
CCOC(=O)C1CN(C2CC2)c2nc3cc(F)c(F)cc3cc2C1=O (stereo not drawn) | 172
CCCn1nc(C2CC2)c(C(N)=O)c1Cc1ccc(-c2ccccc2S(=O)(=O)NC(=O)c2ccccc2)cc1 | 187 to 191
NC(=O)[C@H]1CN(c2cc(F)c(N3CCOCC3)c(F)c2)C(=O)O1 | 181 to 183
Oc1nn(-c2ccccc2)nc1Cl | 135 to 140
CS(=O)(=O)c1ccc(-c2[nH]c3ccccc3c2-c2ccccc2)cc1 | 221 to 222
Nc1ncnc2c1ncn2Cc1oc2ccccc2c(=O)c1-c1cccc(F)c1 | 224 to 227
Cc1cc2c(cc1Cl)N(C(=O)CN1CCN(C)CC1)c1ccccc1N(C)S2(=O)=O | 156 to 158
Cc1cc2c(c3ccc(=O)[nH]c13)O[C@@H](CN)[C@@H]2CO (racemic) | > 300
COc1nc(N)nc(C(C)C)n1 | 116 to 118
CSc1ccc(NC(C#N)c2ccc(C)cc2)cc1 (stereo not drawn) | 186 to 187
CCOC(=O)C1=C(C)OC(N)=C(C(=O)OCC)C1c1cccc([N+](=O)[O-])c1 (stereo not drawn) | 161

Compound | melting point [°C]
C(#Cc1ccc2[nH]ccc2c1)CCN1CCC(Cc2ccccc2)CC1 | 165 to 166
O=C(O)Cc1c(F)c(F)nc(F)c1Cl | 127 to 129
COc1ccc([C@H](CC(=O)O)n2ccn(CCCc3ccc4c(n3)NCCC4)c2=O)cn1 | 123
CC(C)(C)C(=O)Nc1ccc2oc3c(c2c1)CCC3 | 188 to 190
CCCN(C(C)C)[C@H]1COc2c(F)ccc(C(N)=O)c2C1 | 139 to 140
Cc1onc(-c2ccc(C(F)(F)F)cc2)c1CO | 72 to 73
Cc1cc(O)cc2c1CCC2(C)C | 80 to 81
O=C(O)C=CC(=O)c1ccccc1[N+](=O)[O-] | 153 to 158
CC(=O)Nc1occ(C(C)(C)C)c1C#N | 135
O=C(Cc1cccc2ccccc12)N[C@H](Cc1ccc(C(F)(F)F)cc1)[C@@H](O)c1ccc(F)cc1 (racemic) | 186 to 187
NNc1ccnc2c(NC(=O)c3ccccc3[N+](=O)[O-])cccc12 | 198 to 203
CCc1ccc(/C(Cl)=C/c2ccc(Br)cc2)cc1 | 75
Cc1nc2cc(C(C)C)ccc2n1C | 130 to 131
O=C(O)CCc1ccc2ccccc2c1Br | 116 to 119
CC(Cc1c[nH]c2ccccc12)NC1CCC(c2ccccc2)(N(C)C)CC1 (stereo not drawn) | 155 to 162
Cn1cc(-c2cc3cccnc3[nH]2)c2cc(C(=O)NC(C)(C)CO)ccc21 | 161 to 162
Cc1ccc(C#N)cc1Cl | 46.5 to 47.5
COc1cc(Cc2cnc(N)nc2N)cc(OC)c1N(C)N=O | 249 to 250
COc1cc(C(=O)Nc2cccc3c2CN(C)CC3)cc(OC)c1OC | 177 to 178
CCNC(=O)CN(c1ccccc1)[C@@H]1c2cc(C#N)ccc2OC(C)(C)[C@@H]1O | 202 to 204
Cc1nc(-c2cc(C(N)=O)c(=O)[nH]c2C)cs1 | > 300
O=Cc1ccc(-c2cccc3cncn23)cc1 | 144 to 146
CCn1cnc(=O)c(-c2cccc(C(F)(F)F)c2)c1 | 172 to 173
Oc1cccnc1Oc1cccc(Br)c1 | 107 to 108
COc1cc(OCC(=O)O)cc2c1C(Cl)=CC1(CCCCC1)O2 | 132 to 133
NC(Cc1cccc2cccc(Br)c12)=NO | 123 to 125

Compound | melting point [°C]
Nc1ccc(CS(=O)(=O)NC2CCCCC2)cc1 | 141 to 143
CCCCCCCCCCCCSC(=O)CS(=O)(=O)Nc1c(OC)cc(OC)cc1OC | 90 to 93
CCN1C(=O)CCCc2cc(Nc3ncc(Cl)c(Nc4ccccc4OC)n3)c(OC)cc21 | 78 to 80
COCCNC(=O)c1cc2cc(OCCNC[C@H](O)COc3ccccc3)ccc2o1 | 95 to 96
N=C(NCCCCC1CCN(CC(O)CO)CC1)NC(=O)c1nc(Cl)c(N)nc1N (stereo not drawn) | 188 to 191
CCn1cc(C(=O)C(Cl)Cl)c(=O)c(-c2cccc(C(F)(F)F)c2)c1 | 108 to 110
COc1ccc(C2=NN(C(=O)c3cccnc3)CC2)c(OC)c1 | 112 to 113
Cc1cc2cnccc2s1 | 47 to 48
COc1cc2c(cc1OC)-c1c(O)c(OC)cc3c1C(C2)CN(C)C3 (stereo not drawn) | 196 to 210
CC1(C)Oc2ccc([N+](=O)[O-])cc2O1 | 89 to 91
COC(=O)C(=Cc1ccc(OCCc2nc(-c3ccccc3)oc2C)cc1)C(=O)OC | 104 to 105
CCOC(=O)c1ccc(-c2nc(COc3ccc(COc4nn(-c5ccccc5)cc4/C=C/P(=O)(OCC)OCC)cc3OC)c(C)o2)s1 | 114 to 115
O=c1[nH]c(=O)n(C2CC(O)C(COCc3ccccc3)O2)cc1F (stereo not drawn) | 129 to 130
CC(=O)OCCOCn1ccc2c(Cl)ncnc21 | 67 to 88
O=C(O)Cc1cccc(Oc2ccccc2Cl)c1O | 103 to 105
COc1ccc(/C=C(/C#N)c2cccs2)cc1OC1CCCC1 | 100 to 101
Clc1cc2c(cc1Cl)Sc1cc(Cl)c(Cl)cc1S2 | 250 to 255
COc1cc(C(=O)c2ccc(CC(=O)O)s2)cc(OC)c1OC | 124
N#Cc1ccc(-c2ncc(C(F)(F)F)cc2Cl)cc1OCC(=O)C1CC1 | 115 to 116
Nc1cccn2nc(SCc3ccccc3)nc12 | 116 to 117
CC1C(c2ccc(Cl)cc2)SC(=O)N1C(=O)NN1CCCCC1 (stereo not drawn) | 92 to 93
N#Cc1c(C#N)n(-c2ccc(Cl)cc2)c(=O)n1Cc1ccccc1 | 192 to 194
COc1cccc(S(=O)(=O)N2CCCC2=O)c1 | 108 to 109
O=S(=O)(c1ccccc1)N1CCC(C(O)(c2ccc(F)c(F)c2)c2ccc(F)c(F)c2)CC1 | 152 to 154
CC(C)(C)OC(=O)Cn1c(C(=O)c2ccccc2)ccc1-c1ccccc1 | 85 to 87
